For one test, the system named is patients. To be noted: cited from earlier work.
Another test concerns the target T1, human 11β-HSD1 (Homo sapiens, UniProt P28845).
T1 construct: truncated (24-287aa) human 11β-HSD1 enzyme; made in house; host or cells: E. coli (lysate, not purified)
The test can be described thus: Human 11β-HSD1 enzymatic SPA assay. The note with it: truncated (24-287aa) human 11β-HSD1, apparent Ki from IC50 by Cheng-Prusoff. The class given is biochemical. Here is the method:
The ability of test compounds to inhibit human 11β-HSD1 enzymatic activity in vitro was evaluated in a Scintillation Proximity Assay (SPA). Tritiated-cortisone substrate, NADPH cofactor and titrated compound were incubated with truncated (24-287aa) human 11β-HSD1 enzyme at room temperature to allow the conversion to cortisol to occur. The reaction was stopped by adding a non-specific 11β-HSD inhibitor, glycyrrhetinic acid. The tritiated cortisol was captured by a mixture of an anti-cortisol monoclonal antibody and SPA beads coated with anti-mouse antibodies. The reaction plate was shaken at room temperature and the radiolabel bound to SPA beads was then measured on a scintillation counter. The 11β-HSD1 assay was carried out in 96-well microtiter plates in a total volume of […]. To start the assay, 188 μL of master mix which contained 75 nM ^3H-cortisone, 100 nM cortisone and 181 μM NADPH was added to the wells. In order to drive the reaction in the 11β-reductase direction, 1 mM glucose-6-phosphate (G-6-P) and 1 U/mL G-6-P dehydrogenase were also added as a NADPH generating system. Solid compound was dissolved in dimethyl sulfoxide to make a 10 mM stock followed by a subsequent 10-fold serial dilution with dimethyl sulfoxide. Each compound solution in dimethyl sulfoxide was 10-fold diluted in Tris/EDTA buffer (pH 7.4). 22 μL of titrated compound were then added in duplicate to the substrate. Reactions were initiated by the addition of 10 μL of 0.1 mg/mL E. coli lysates overexpressing 11β-HSD1 enzyme. After shaking and incubating plates for 30 minutes at room temperature, reactions were stopped by adding 10 μL of 1 mM glycyrrhetinic acid. The product, tritiated cortisol, was captured by adding 10 μL of 1 μM monoclonal mouse anti-cortisol antibodies and 50 μL of SPA beads coated with anti-mouse antibodies. After shaking for 30 minutes, plates were read in a Microbeta scintillation counter. Percent inhibition was calculated based on the background and the maximal signal. Wells that contained substrate without compound or enzyme were used as the background, while the wells that contained substrate and enzyme without any compound were considered as maximal signal. Percent of inhibition of each compound was calculated relative to the maximal signal and IC50 curves were generated. Assuming competitive inhibition the Cheng-Prusoff equation was used to calculate apparent Ki values from the IC50 values. This assay was applied to 11β-HSD2 as well, whereby 6 nM tritiated cortisol and 250 uM NAD^+ were used as substrate and cofactor, respectively.

Each structure is given as a SMILES string. Where two headings read alike, the source gives them in different places. A value given as a limit tells only on which side of the number the result lay.

T1 sequence (P28845 24-287): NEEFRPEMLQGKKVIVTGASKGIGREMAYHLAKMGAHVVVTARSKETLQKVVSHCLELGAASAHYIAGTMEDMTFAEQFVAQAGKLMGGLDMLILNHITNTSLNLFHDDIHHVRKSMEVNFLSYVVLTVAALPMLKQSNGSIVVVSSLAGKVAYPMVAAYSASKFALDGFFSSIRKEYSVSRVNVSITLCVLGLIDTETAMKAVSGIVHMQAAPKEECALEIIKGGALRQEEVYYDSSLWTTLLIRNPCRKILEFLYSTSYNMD

`CC1(C)[C@@H](OC(=O)CCC(=O)O)CC[C@]2(C)[C@H]3C(=O)C=C4[C@@H]5C[C@@](C)(C(=O)O)CC[C@]5(C)CC[C@@]4(C)[C@]3(C)CC[C@@H]12` [carbenoxolone]: the lowered intraocular pressure with patients (treatment for 4 days) is listed as 10%; with patients (treatment for 7 days), 17%. As to `CC(C)(Oc1ccc(Cl)cc1F)C(=NC#N)NC1CC2CCC1C2` (stereo not drawn) [Example 66, N-(exo-bicyclo[2.2.1]hept-2-yl)-2-(4-chloro-2-fluorophenoxy)-N-cyano-2-methylpropanimidamide], the Ki at human 11β-HSD1 lay in the range of 0.1 to 1 µM.

With `CC(C)(Oc1ccc(F)cc1F)C(=NC#N)NC12CC3CC(CC1C3)C2` [Example 69], on human 11β-HSD1, the Ki lay within 0.01 to 0.1 µM. Same read-out and setting: under `CC(C)(Oc1ccc(Cl)cc1)/C(=N\C#N)N[C@@H]1[C@@H]2C[C@@H]3C[C@H]1C[C@@](C#N)(C3)C2` [Example 37, (1E)-2-(4-Chlorophenoxy)-N′-cyano-N-[(E)-5-cyano-2-adamantyl]-2-methylpropanimidamide] stands 0.01 to 0.1 µM. As for `CC(C)(Oc1ccc(Cl)cc1)C(=NC#N)NC1CCCCCCC1` [Example 41, 2-(4-Chlorophenoxy)-N′-cyano-N-cyclooctyl-2-methylpropanimidamide], the Ki at human 11β-HSD1 was 0.01 to 0.1 µM.

Regarding `COC(=O)C12CC3CC(C1)C(NC(=NC#N)C(C)(C)N1CCN(c4ccc(C(F)(F)F)cn4)CC1)C(C3)C2` (stereo not drawn) [Example 29, Methyl(E)-4-[((1E)-N-cyano-2-methyl-2-{4-[5-(trifluoromethyl)pyridin-2-yl]piperazin-1-yl}propanimidoyl)amino]adamantane-1-carboxylate], the Ki at human 11β-HSD1 fell in the range of 0.1 to 1 µM.

`CC(C)(OCc1ccc(C(F)(F)F)cc1)C(=NC#N)NC1C2CC3CC1CC(C(=O)O)(C3)C2` (stereo not drawn) [Example 24, (E)-4-[((1E)-N-Cyano-2-methyl-2-{[4-(trifluoromethyl)benzyl]oxy}propanimidoyl)amino]adamantane-1-carboxylic acid]: the Ki on human 11β-HSD1 was in the range of 0.01 to 0.1 µM. On the same count and under the same terms, under `CC(C)(Oc1ccccc1)C(=NC#N)NC1C2CC3CC1CC(O)(C3)C2` (stereo not drawn) [Example 49, (1E)-N′-cyano-N-[(E)-5-hydroxyadamantan-2-yl]-2-methyl-2-phenoxypropanimidamide] stands 0.01 to 0.1 µM. The same measure, in the same setting: under `CC(C)(Oc1ccc(Cl)cn1)C(=NC#N)NC1C2CC3CC1CC(C#N)(C3)C2` (stereo not drawn) [Example 59, (1E)-2-[(5-chloropyridin-2-yl)oxy]-N′-cyano-N-[(E)-5-cyanoadamantan-2-yl]-2-methylpropanimidamide] stands 0.1 to 1 µM. The same measure, in the same setting: under `CC(C)(Oc1ccc(Cl)cn1)C(=NC#N)NC1C2CC3CC1CC(C(N)=O)(C3)C2` (stereo not drawn) [Example 75, (E)-4-({(1E)-2-[(5-chloropyridin-2-yl)oxy]-N-cyano-2-methylpropanimidoyl}amino)adamantane-1-carboxamide] stands 0.01 to 0.1 µM; under `CC(C)(Oc1ccccn1)/C(=N\C#N)NC1C2CC3CC1CC(S(C)(=O)=O)(C3)C2` (stereo not drawn) [Example 77, (1E)-N′-cyano-2-methyl-N-[(E)-5-(methylsulfonyl)adamantan-2-yl]-2-(pyridin-2-yloxy)propanimidamide], 0.1 to 1 µM; under `CC(C)(Oc1ccccc1)C(=NC#N)NC12CCC(C(N)=O)(CC1)C2` [Example 81, 4-{[N-cyano-2-methyl-2-phenoxypropanimidoyl]amino}bicyclo[2.2.1]heptane-1-carboxamide], above 1 µM. For `CC(C)(Oc1ccccc1)/C(=N\C#N)NC1C2CC3CC1CC(S(C)(=O)=O)(C3)C2` (stereo not drawn) [Example 64, (1E)-N-cyano-2-methyl-N-[(E)-5-(methylsulfonyl)adamantan-2-yl]-2-phenoxypropanimidamide], the Ki on human 11β-HSD1 was at most 0.01 µM. In the case of `CC(C)(Oc1ccc(F)cc1F)/C(=N\C#N)N[C@@H]1[C@@H]2C[C@@H]3C[C@H]1C[C@@](S(N)(=O)=O)(C3)C2` [Example 57], the Ki at human 11β-HSD1 lay within 0.01 to 0.1 µM. `COC(=O)C12CC3CC(C1)C(NC(=NC#N)C(C)(C)Oc1ccc(Cl)cc1)C(C3)C2` (stereo not drawn) [Example 11, Methyl(E)-4-{[(1E)-2-(4-chlorophenoxy)-N-cyano-2-methylpropanimidoyl]amino}adamantane-1-carboxylate]: the Ki on human 11β-HSD1 was 0.1 to 1 µM. The same measure, in the same setting: under `CC(C)(Oc1ccccc1)C(=NC#N)NC12CCC(C(N)=O)(CC1)CC2` [Example 82, 4-{[N-cyano-2-methyl-2-phenoxypropanimidoyl]amino}bicyclo[2.2.2]octane-1-carboxamide] stands 0.01 to 0.1 µM. Still for that read-out and setting: under `CC(C)(Oc1ccc(Cl)cn1)C(=NC#N)NC1C2CC3CC1CC(S(N)(=O)=O)(C3)C2` (stereo not drawn) [Example 68, (1E)-2-[(5-chloropyridin-2-yl)oxy]-N-cyano-2-methyl-N-[(E)-5-sulfamoyladamantan-2-yl]propanimidamide] stands above 1 µM. The same measure, in the same setting: under `COC(=O)C12CC3CC(C1)C(NC(=NC#N)C(C)(C)OCc1ccc(OC)cc1)C(C3)C2` (stereo not drawn) [Example 28, Methyl(E)-4-({(1E)-N-cyano-2-[(4-methoxybenzyl)oxy]-2-methylpropanimidoyl}amino)adamantane-1-carboxylate] stands 0.1 to 1 µM. Take `CC(C)(Oc1ccc(Cl)cc1)C(=NC#N)NC1C2CC3CC1CC(C(N)=O)(C3)C2` (stereo not drawn) [Example 14, (E)-4-{[(1E)-2-(4-Chlorophenoxy)-N-cyano-2-methylpropanimidoyl]amino}adamantane-1-carboxamide]: on human 11β-HSD1, the Ki is at most 0.01 µM. Same read-out and setting: under `N#CN=C(COc1ccc(Cl)cc1)NC1C2CC3CC1CC(O)(C3)C2` (stereo not drawn) [Example 7, (1E)-2-(4-Chlorophenoxy)-N′-cyano-N-[(E)-5-hydroxy-2-adamantyl]ethanimidamide] stands above 1 µM. The same measure, in the same setting: under `COc1ccc(Cl)cc1C(=NC#N)N[C@@H]1[C@@H]2C[C@@H]3C[C@H]1C[C@@](O)(C3)C2` [Example 93, 5-chloro-N′-cyano-N-[(E)-5-hydroxyadamantan-2-yl]-2-methoxybenzenecarboximidamide] stands above 1 µM. Regarding `N#CN=C(NC1C2CC3CC1CC(O)(C3)C2)C1(c2ccc(Cl)cc2)CCC1` (stereo not drawn) [Example 3, 1-(4-Chlorophenyl)-N′-cyano-N-[(E)-5-hydroxy-2-adamantyl]cyclobutanecarboximidamide], the Ki on human 11β-HSD1 was above 1 µM.

Consider `CC(C)(Oc1ccc(Cl)cc1)C(=NC#N)NC12CC3CC(CC(C3)C1)C2` [Example 43], for which, at human 11β-HSD1, the Ki fell in the range of 0.01 to 0.1 µM.

Source of the values: patent US8507493B2 (AbbVie Inc., priority 2009, dated 2013).
